Test results from patent US20250114460A1, “NOVEL PLK1 DEGRADATION INDUCING COMPOUND” (UPPTHERA, INC., priority 2021, published 2025).

What was measured:
Type in all cases: cell-based
[1] = biological target: T1, PLK1 (Homo sapiens, UniProt P53350); experiment: Luciferase assay for PLK1 in HeLa LgBit (Plk1-HiBit KI) cell line; conditions: 300 nM compound, luminescence after 9 hours
T1 construct: endogenous in cells; host or cells: HeLa LgBit (Plk1-HiBit KI): HeLa stably expressing LgBit, with a CRISPR/Cas9 knock-in of HiBit at the endogenous PLK1 locus
T1 sequence (P53350 whole entry): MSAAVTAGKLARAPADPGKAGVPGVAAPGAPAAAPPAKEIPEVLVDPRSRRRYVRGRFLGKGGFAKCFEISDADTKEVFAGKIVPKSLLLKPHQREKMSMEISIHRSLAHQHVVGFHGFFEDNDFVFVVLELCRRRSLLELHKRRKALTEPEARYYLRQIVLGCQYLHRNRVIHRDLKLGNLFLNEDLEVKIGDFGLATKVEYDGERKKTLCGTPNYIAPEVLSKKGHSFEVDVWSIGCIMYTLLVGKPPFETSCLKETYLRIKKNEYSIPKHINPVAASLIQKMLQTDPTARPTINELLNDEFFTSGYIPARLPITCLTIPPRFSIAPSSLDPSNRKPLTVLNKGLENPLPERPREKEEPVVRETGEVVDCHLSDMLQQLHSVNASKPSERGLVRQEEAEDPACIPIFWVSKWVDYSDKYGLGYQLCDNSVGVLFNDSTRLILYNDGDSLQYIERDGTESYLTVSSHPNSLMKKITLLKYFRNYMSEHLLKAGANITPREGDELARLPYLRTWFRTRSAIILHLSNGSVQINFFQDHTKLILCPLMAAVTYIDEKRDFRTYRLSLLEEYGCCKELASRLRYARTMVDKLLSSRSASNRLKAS
How it was run: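 Luminescence, followed in real time after adding compound at 300 nM and Endurazine substrate, is reported relative to DMSO-treated wells. Cells are a HeLa LgBit line with a Plk1-HiBit knock-in, synchronized by 2 mM thymidine for 24 h, released, and cultured 18 h before treatment.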

[2] = system: NCI-H526 cell line; experiment: Cell viability assay for H526 cell (EZ-Cytox); conditions: Homo sapiens, NCI-H526, 120 h; H526 cells, 5 days, 3000 nM to 0.46 nM
How it was run: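 Read-out was EZ-Cytox colorimetric absorbance at 450 nm, taken after brief plate shaking, with IC50 derived. Before reading, H526 cells had been cultured with test compound for 5 days.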

[3] = system: MRC-5 cell line; experiment: Cell viability assay for MRC-5 cell line (EZ-Cytox); conditions: Homo sapiens, MRC5, 120 h; MRC-5 normal cell line, 5 days, 10000 nM to 1.52 nM; N.D. = no cytotoxicity until 10 μM; read-out: Activity: IC50 value of Exemplary Compound to MRC-5 cell line
Method: 4. Cell Viability Assay for MRC-5 Cell Line
(1) Culture of MRC-5 Cell Line
Passage of cultured cells was maintained within P15.
(2) Treatment of Compounds of the Present Invention
Then, it was cultured in 37° C.
(3) Cytotoxicity Experiment
CO2 incubator for 4 hours.

| Compound | Activity: ratio of the luminescense value of each Exemplary Compound treatment group to DMSO treatment group [1] | IC50 [2] [µM] | IC50 [3] [µM] |
| --- | --- | --- | --- |
| COc1cc(C(=O)NC2CC(N(C)C3CCN(c4cccc5c4C(=O)N(C4CCC(=O)NC4=O)C5=O)CC3)C2)ccc1Nc1ncc2c(n1)N(C(C)C)CC(F)(F)C(=O)N2C (stereo not drawn) [Compound 164, 4-((7,7-difluoro-9-isopropyl-5-methyl-6-oxo-6,7,8,9-tetrahydro-5H-pyrimido[4,5-b][1,4]diazepin-2-yl)amino)-N-(3-((1-(2-(2,6-dioxopiperidin-3-yl)-1,3-dioxoisoindolin-4-yl)piperidin-4-yl)(methyl)amino)cyclobutyl)-3-methoxybenzamide] | ++ (++<0.6) | < 0.03 | > 10 |
| COc1cc(C(=O)NC2CCC(N(C)C3CCN(c4cccc5c4C(=O)N(C4CCC(=O)NC4=O)C5=O)CC3)C2)ccc1Nc1ncc2c(n1)N(C(C)C)CC(F)(F)C(=O)N2C (stereo not drawn) [Compound 165, 4-((7,7-difluoro-9-isopropyl-5-methyl-6-oxo-6,7,8,9-tetrahydro-5H-pyrimido[4,5-b][1,4]diazepin-2-yl)amino)-N-(3-((1-(2-(2,6-dioxopiperidin-3-yl)-1,3-dioxoisoindolin-4-yl)piperidin-4-yl)(methyl)amino)cyclopentyl)-3-methoxybenzamide] | ++ (++<0.6) | < 0.03 | > 10 |
| COc1cc(C(=O)NN2CCN(C3CCN(c4cccc5c4C(=O)N(C4CCC(=O)NC4=O)C5=O)CC3(F)F)CC2)ccc1Nc1ncc2c(n1)N(C(C)C)CC(F)(F)C(=O)N2C (stereo not drawn) [Compound 167, 4-((7,7-difluoro-9-isopropyl-5-methyl-6-oxo-6,7,8,9-tetrahydro-5H-pyrimido[4,5-b][1,4]diazepin-2-yl)amino)-N-(4-(1-(2-(2,6-dioxopiperidin-3-yl)-1,3-dioxoisoindolin-4-yl)-3,3-difluoropiperidin-4-yl)piperazin-1-yl)-3-methoxybenzamide] | +++ (+++: <0.3) | < 0.03 | > 10 |
| COc1cc(C(=O)N[C@H]2CC[C@H](N3CCN(CCOCCNc4cccc5c4C(=O)N(C4CCC(=O)NC4=O)C5=O)CC3)CC2)ccc1Nc1ncc2c(n1)N(C1CCCC1)CC(F)(F)C(=O)N2C (stereo partly drawn) [Compound 194, 4-((9-cyclopentyl-7,7-difluoro-5-methyl-6-oxo-6,7,8,9-tetrahydro-5H-pyrimido[4,5-b][1,4]diazepin-2-yl)amino)-N-((1r,4r)-4-(4-(2-(2-((2-(2,6-dioxopiperidin-3-yl)-1,3-dioxoisoindolin-4-yl)amino)ethoxy)ethyl)piperazin-1-yl)cyclohexyl)-3-methoxybenzamide] | ++ (++<0.6) | < 0.05 | > 10 |
| COc1cc(C(=O)N[C@H]2CC[C@H](N3CCN(CCCNc4cccc5c4C(=O)N(C4CCC(=O)NC4=O)C5=O)CC3)CC2)c(F)cc1Nc1ncc2c(n1)N(C1CCCC1)CC(F)(F)C(=O)N2C (stereo partly drawn) [Compound 197, 4-((9-cyclopentyl-7,7-difluoro-5-methyl-6-oxo-6,7,8,9-tetrahydro-5H-pyrimido[4,5-b][1,4]diazepin-2-yl)amino)-N-((1r,4r)-4-(4-(3-((2-(2,6-dioxopiperidin-3-yl)-1,3-dioxoisoindolin-4-yl)amino)propyl)piperazin-1-yl)cyclohexyl)-2-fluoro-5-methoxybenzamide] | ++ (++<0.6) | < 0.05 | 18 |
| COc1cc(C(=O)NN2CCN(C3CN(c4ccc5c(c4)C(=O)N(C4CCC(=O)NC4=O)C5=O)C3)CC2)ccc1Nc1ncc2c(n1)N(C1CCCC1)CC(F)(F)C(=O)N2C (stereo not drawn) [Compound 201, 4-((9-cyclopentyl-7,7-difluoro-5-methyl-6-oxo-6,7,8,9-tetrahydro-5H-pyrimido[4,5-b][1,4]diazepin-2-yl)amino)-N-(4-(1-(2-(2,6-dioxopiperidin-3-yl)-1,3-dioxoisoindolin-5-yl)azetidin-3-yl)piperazin-1-yl)-3-methoxybenzamide] | +++ (+++: <0.3) | < 0.05 | > 10 |
| COc1cc(C(=O)NC2CCN(C(=O)CC3CN(c4ccc5c(c4)C(=O)N(C4CCC(=O)NC4=O)C5=O)C3)CC2)c(F)cc1Nc1ncc2c(n1)N(C1CCCC1)CC(F)(F)C(=O)N2C (stereo not drawn) [Compound 205, 4-((9-cyclopentyl-7,7-difluoro-5-methyl-6-oxo-6,7,8,9-tetrahydro-5H-pyrimido[4,5-b][1,4]diazepin-2-yl)amino)-N-(1-(2-(1-(2-(2,6-dioxopiperidin-3-yl)-1,3-dioxoisoindolin-5-yl)azetidin-3-yl)acetyl)piperidin-4-yl)-2-fluoro-5-methoxybenzamide] | ++ (++<0.6) | < 0.05 | > 10 |
| COc1cc(C(=O)NC2CCN(C3CC4(CCN(c5cccc6c5C(=O)N(C5CCC(=O)NC5=O)C6=O)CC4)C3)CC2)c(F)cc1Nc1ncc2c(n1)N(C1CCCC1)CC(F)(F)C(=O)N2C (stereo not drawn) [Compound 208, 4-((9-cyclopentyl-7,7-difluoro-5-methyl-6-oxo-6,7,8,9-tetrahydro-5H-pyrimido[4,5-b][1,4]diazepin-2-yl)amino)-N-(1-(7-(2-(2,6-dioxopiperidin-3-yl)-1,3-dioxoisoindolin-4-yl)-7-azaspiro[3.5]nonan-2-yl)piperidin-4-yl)-2-fluoro-5-methoxybenzamide] | ++ (++<0.6) | < 0.1 | > 10 |
| COc1cc(C(=O)NN2CCC(N3CC4(CCN(c5cccc6c5C(=O)N(C5CCC(=O)NC5=O)C6=O)CC4)C3)CC2)c(F)cc1Nc1ncc2c(n1)N(C1CCCC1)CC(F)(F)C(=O)N2C (stereo not drawn) [Compound 209, 4-((9-cyclopentyl-7,7-difluoro-5-methyl-6-oxo-6,7,8,9-tetrahydro-5H-pyrimido[4,5-b][1,4]diazepin-2-yl)amino)-N-(4-(7-(2-(2,6-dioxopiperidin-3-yl)-1,3-dioxoisoindolin-4-yl)-2,7-diazaspiro[3.5]nonan-2-yl)piperidin-1-yl)-2-fluoro-5-methoxybenzamide] | ++ (++<0.6) | < 0.05 | 5.31 |
| COc1cc(C(=O)NN2CCC(N3CC4(CCN(c5cccc6c5C(=O)N(C5CCC(=O)NC5=O)C6=O)CC4)C3)CC2)c(F)cc1Nc1ncc2c(n1)N(C(C)C)CC(F)(F)C(=O)N2C (stereo not drawn) [Compound 210, 4-((7,7-difluoro-9-isopropyl-5-methyl-6-oxo-6,7,8,9-tetrahydro-5H-pyrimido[4,5-b][1,4]diazepin-2-yl)amino)-N-(4-(7-(2-(2,6-dioxopiperidin-3-yl)-1,3-dioxoisoindolin-4-yl)-2,7-diazaspiro[3.5]nonan-2-yl)piperidin-1-yl)-2-fluoro-5-methoxybenzamide] | ++ (++<0.6) | < 0.05 | 18.2 |
| COc1cc(C(=O)NN2CCC(N3CC4(CCN(c5cccc6c5C(=O)N(C5CCC(=O)NC5=O)C6=O)CC4)C3)CC2)ccc1Nc1ncc2c(n1)N(C1CCCC1)CC(F)(F)C(=O)N2C (stereo not drawn) [Compound 211, 4-((9-cyclopentyl-7,7-difluoro-5-methyl-6-oxo-6,7,8,9-tetrahydro-5H-pyrimido[4,5-b][1,4]diazepin-2-yl)amino)-N-(4-(7-(2-(2,6-dioxopiperidin-3-yl)-1,3-dioxoisoindolin-4-yl)-2,7-diazaspiro[3.5]nonan-2-yl)piperidin-1-yl)-3-methoxybenzamide] | +++ (+++: <0.3) | < 0.03 | > 10 |
| COc1cc(C(=O)NN2CCC(N3CC4(CCN(c5ccc6c(c5)C(=O)N(C5CCC(=O)NC5=O)C6=O)CC4)C3)CC2)ccc1Nc1ncc2c(n1)N(C1CCCC1)CC(F)(F)C(=O)N2C (stereo not drawn) [Compound 212, 4-((9-cyclopentyl-7,7-difluoro-5-methyl-6-oxo-6,7,8,9-tetrahydro-5H-pyrimido[4,5-b][1,4]diazepin-2-yl)amino)-N-(4-(7-(2-(2,6-dioxopiperidin-3-yl)-1,3-dioxoisoindolin-5-yl)-2,7-diazaspiro[3.5]nonan-2-yl)piperidin-1-yl)-3-methoxybenzamide] | ++ (++<0.6) | < 0.03 | > 10 |
| COc1cc(C(=O)NN2CCC(N3CC4(CCN(c5cccc6c5C(=O)N(C5CCC(=O)NC5=O)C6=O)CC4)C3)CC2)ccc1Nc1ncc2c(n1)N(C(C)C)CC(F)(F)C(=O)N2C (stereo not drawn) [Compound 213, 4-((7,7-difluoro-9-isopropyl-5-methyl-6-oxo-6,7,8,9-tetrahydro-5H-pyrimido[4,5-b][1,4]diazepin-2-yl)amino)-N-(4-(7-(2-(2,6-dioxopiperidin-3-yl)-1,3-dioxoisoindolin-4-yl)-2,7-diazaspiro[3.5]nonan-2-yl)piperidin-1-yl)-3-methoxybenzamide] | ++ (++<0.6) | < 0.03 | > 10 |
